The source of these data is PubChem BioAssay (NCI).

SMILES strings stand for the structures.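 Cells were grown in 96-well plates and exposed to each compound for 48 hours at five concentrations; endpoints were interpolated linearly between bracketing concentrations, or set to the highest concentration if not reached. GI50: concentration for 50% inhibition of growth. Definition used: TGI = concentration required for complete inhibition of growth.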

Test systems include M14 melanoma; COLO 205 colon; A549 NSCLC; UACC-62 melanoma; RXF 393 renal; SN12C renal; IGROV1 ovarian; U251 CNS.
Test in all cases: inhibition of tumour cell growth, NCI panel, 48 h

For the molecule `C[C@]12CC[C@@H]3c4cc(OCC(F)(F)F)c(O)cc4C(=O)C[C@H]3[C@@H]1CC[C@@H]2O`, the TGI in the assay with M14 melanoma is greater than 41.7 µM; in the assay on COLO 205 colon, greater than 84.5 µM; in the assay on A549 NSCLC, greater than 100 µM; in the assay with UACC-62 melanoma, greater than 100 µM; in the assay with RXF 393 renal, 58.5 µM; with SN12C renal, greater than 100 µM. Besides, the TGI in the assay on IGROV1 ovarian was greater than 100 µM; in the assay with U251 CNS it was greater than 38.8 µM.

For the molecule `Clc1ccc(Oc2ccc(N=Cc3ccc(Cl)cc3Cl)cc2Cl)cc1`, the TGI in the assay with M14 melanoma was 68 µM; with COLO 205 colon, greater than 100 µM; in the assay on A549 NSCLC, greater than 100 µM; in the assay on UACC-62 melanoma, greater than 100 µM; in the assay with SN12C renal, greater than 100 µM; in the assay with IGROV1 ovarian, greater than 100 µM. In addition, in the assay with U251 CNS, the TGI was found to be 89.3 µM.

With `CCCc1cc(=O)oc2c3c(c4c(c12)OC(C)(C)C=C4)O[C@@H](C)[C@H](C)C3=O`, the TGI worked out at 49.5 µM with COLO 205 colon; 24.5 µM with A549 NSCLC; 41.4 µM in the assay on SN12C renal; 28.4 µM in the assay on IGROV1 ovarian; 97.6 µM in the assay with U251 CNS.

For `COCC1CCCN1c1ccc(/C=C(/C#N)C(N)=S)cc1` (stereo not given), the GI50 with M14 melanoma is greater than 100 µM; in the assay with COLO 205 colon, greater than 100 µM; with A549 NSCLC, greater than 100 µM; in the assay on RXF 393 renal, greater than 100 µM; in the assay with SN12C renal, 30.5 µM; with U251 CNS it was greater than 100 µM. Further, the TGI in the assay with M14 melanoma, in the assay with COLO 205 colon, in the assay on A549 NSCLC, in the assay on RXF 393 renal, with SN12C renal and in the assay with U251 CNS was greater than 100 µM in each case.

Regarding `CC(OC(=O)NCn1cc(-c2ccccc2)nn1)c1ccccc1` (stereo not given), the TGI in the assay on M14 melanoma is 34.9 µM; in the assay with COLO 205 colon it was greater than 100 µM; in the assay with A549 NSCLC, greater than 100 µM; with SN12C renal, greater than 100 µM; in the assay with IGROV1 ovarian it was greater than 100 µM; in the assay on U251 CNS it was greater than 100 µM.

On to `Nc1c(-c2nc3ccccc3s2)c2ccc([N+](=O)[O-])cc2c(=O)n1-c1cccc(C(=O)O)c1`, for which the TGI was greater than 100 µM in the assay on COLO 205 colon; greater than 100 µM with A549 NSCLC; 58.6 µM in the assay on UACC-62 melanoma; 84.2 µM in the assay on SN12C renal; 56 µM in the assay on U251 CNS.

As to `O=c1[nH]c(Nc2cccc(C(F)(F)F)c2)nc2nc[nH]c12`, the TGI with M14 melanoma, with COLO 205 colon, in the assay on A549 NSCLC, with RXF 393 renal, with SN12C renal and in the assay with IGROV1 ovarian was greater than 100 µM each time. The same molecule yielded a TGI in the assay with U251 CNS greater than 100 µM.

`COC(=O)C1(Cc2ccc3c(c2)CCC3)Cc2ccc3c(c2C1O)CCC3` (stereo not given): the TGI in the assay with COLO 205 colon is 25.6 µM; in the assay with A549 NSCLC, 37.3 µM; in the assay with UACC-62 melanoma, 32.9 µM; in the assay with RXF 393 renal, 31 µM; in the assay with SN12C renal it was 28.5 µM; in the assay on U251 CNS, 30.6 µM.

In the case of `Cc1cccc2c1Oc1cc(Cl)ccc1C2NC(=O)CCN1CCN(CCO)CC1` (stereo not given), the TGI is 30.3 µM with M14 melanoma; 36.6 µM in the assay with COLO 205 colon; 23.7 µM with A549 NSCLC; 28.7 µM in the assay with UACC-62 melanoma; 28.7 µM with SN12C renal; greater than 100 µM in the assay with IGROV1 ovarian. The molecule further registered a TGI in the assay on U251 CNS of 29.3 µM.

On to `Cc1cccc2c1Oc1ccccc1C2NC(=O)c1ccc([N+](=O)[O-])cc1` (stereo not given), for which the TGI was greater than 100 µM in the assay with M14 melanoma; greater than 100 µM in the assay with A549 NSCLC; greater than 100 µM in the assay with UACC-62 melanoma; 89.2 µM in the assay with RXF 393 renal; 91 µM in the assay with SN12C renal; greater than 100 µM with IGROV1 ovarian. In the assay on U251 CNS, the TGI is greater than 100 µM.

Consider `CC1=C2c3c(C)ccc4ccc(C)c(c34)C2(O)C(C)C1=O` (stereo not given), for which the TGI was greater than 100 µM with M14 melanoma; 72.2 µM with COLO 205 colon; greater than 100 µM in the assay on A549 NSCLC; greater than 100 µM in the assay with UACC-62 melanoma; greater than 100 µM with SN12C renal; greater than 100 µM with IGROV1 ovarian. Further, the TGI with U251 CNS is greater than 100 µM.

For the molecule `CC1OC(OC2C(O[C@H]3CC[C@@]4(C)[C@@H](CC[C@@H]5[C@@H]4CC[C@]4(C)[C@@H]6[C@H](C[C@@H]54)O[C@]4(CC[C@@H](C)CO4)[C@H]6C)C3)OC(CO)C(OC3OC(CO)C(O)C(OC4OCC(O)C(O)C4O)C3OC3OCC(O)C(O)C3O)C2O)C(O)C(O)C1O` (stereo not given in full), the TGI came out at 0.963 µM with M14 melanoma; 1.35 µM in the assay with COLO 205 colon; 1.05 µM in the assay with A549 NSCLC; 1.77 µM in the assay on UACC-62 melanoma; 1.85 µM in the assay on RXF 393 renal; 2.73 µM in the assay on IGROV1 ovarian. This molecule also yielded a TGI in the assay with U251 CNS of 1.79 µM.

For the molecule `O=c1cc(N2CCOCC2)[nH]c(=O)n1-c1cccc(C(F)(F)F)c1`, the TGI in the assay with M14 melanoma, in the assay on COLO 205 colon, in the assay with A549 NSCLC, in the assay on UACC-62 melanoma, in the assay on SN12C renal and in the assay on IGROV1 ovarian was greater than 100 µM throughout. The TGI in the assay with U251 CNS was greater than 100 µM.

As to `O=C1CN2Cc3cc(N4CCOCC4)ccc3N=C2N1`, the TGI in the assay with M14 melanoma, with COLO 205 colon, in the assay with UACC-62 melanoma, with RXF 393 renal, with SN12C renal and with IGROV1 ovarian was greater than 100 µM throughout. For the same molecule, in the assay on U251 CNS, the TGI is greater than 100 µM.

Take `NCCCNc1nc2ccccc2c2c(=O)c3cc(C(F)(F)F)ccc3sc12`: the GI50 in the assay with M14 melanoma was 1.64 µM; with UACC-62 melanoma, 1.68 µM; in the assay on RXF 393 renal, 1.38 µM; with SN12C renal it was 1.73 µM. The TGI came out at 3.12 µM with M14 melanoma, 3.09 µM with UACC-62 melanoma, 2.72 µM in the assay on RXF 393 renal and 3.23 µM with SN12C renal.

In the case of `O=[N+]([O-])c1ccc(C2=NOC(c3ccccc3F)N2C23CC4CC(CC(C4)C2)C3)cc1` (stereo not given), the TGI with M14 melanoma, with COLO 205 colon, in the assay on A549 NSCLC, with UACC-62 melanoma, with SN12C renal and in the assay on IGROV1 ovarian was greater than 100 µM each time. The molecule further came in with a TGI with U251 CNS greater than 100 µM.

With `O=C(/C=C/c1ccc(Cl)cc1)Oc1ccc(/C=C2\CCCCC2=O)cc1`, the TGI in the assay with M14 melanoma, with COLO 205 colon, with A549 NSCLC, in the assay with UACC-62 melanoma, in the assay with SN12C renal and in the assay with IGROV1 ovarian was greater than 100 µM throughout. In addition, the TGI in the assay with U251 CNS is greater than 100 µM.
